In PubChem BioAssay AID1117319 (Southern Research Institute, 2015):
Records with an inconclusive call do not appear.

Biological target: Virion infectivity factor (Human immunodeficiency virus type 1 group M subtype B (isolate BH10)) + Virion infectivity factor (Human immunodeficiency virus type 1 group M subtype B (isolate BRU/LAI)) + Virion infectivity factor (Human immunodeficiency virus type 1 group M subtype B (isolate PCV12)) + Virion infectivity factor (Human immunodeficiency virus type 1 group M subtype B (isolate HXB2)) + DNA dC->dU-editing enzyme APOBEC-3G (Homo sapiens) (UniProt P69720+P69721+P69722+P69723+Q9HC16)
Test: inhibitors of Vif binding to APOBEC3G peptide, primary screen, biochemical, TR-FRET, GST-Vif 1-94, biotin-A3G peptide, dose response retest (AID 1117319);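 note: Vif residues 1-94 fused to GST binding biotinylated APOBEC3G peptide 110-148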

Compared with O/C=c1\ccc2cccc3nc(C(F)(F)F)nc1c23, COc1ccc2nc3ccccc3nc2c1N is 2.2-fold higher in IC50: 2.79 µM for the first, 6 µM for the second. The first is the more potent here.

CN(C)c1ccc(N2C(=O)CSC2=S)cc1 and CN(C)c1ccc(NC(=O)Cn2cc3c(n2)CCCC3)cc1 are within 1.5-fold of each other in IC50: 8.37 µM for the first, 6.08 µM for the second.

NC(=O)C[C@@H]1N[C@]2(C(=O)Nc3ccccc32)[C@@H]2C(=O)N(c3cc(C(F)(F)F)ccc3Cl)C(=O)[C@H]12 and Cc1ccc(NC(=O)c2ccc(Cl)c(N3C(=O)C=CC3=O)c2)cc1 are within 1.5-fold of each other in IC50: 55.5 µM for the first, 81.2 µM for the second.

O=C(NCCS(=O)CCNC(=O)C(F)(F)F)C(F)(F)F and O=C(O)CCC(=O)N(Cc1cccs1)Cc1cccs1 are within 1.5-fold of each other in IC50: 95 µM for the first, 79.6 µM for the second.

O=[N+]([O-])c1ccccc1S(=O)(=O)NC1CCCC1 and O=C(O)C1Cc2ccccc2N2CCCC12 (stereo not drawn) are within 1.5-fold of each other in IC50: 12.9 µM for the first, 15.2 µM for the second.

CCOC(=O)CSc1nc2c(sc(=S)n2-c2ccccc2OC)c(=O)n1Cc1ccco1 and CCOC(=O)C1=C(C)N=c2s/c(=C/c3ccco3)c(=O)n2C1c1cccc(OC)c1 (stereo not drawn) are within 1.5-fold of each other in IC50: 27.2 µM for the first, 33 µM for the second.

First: COc1ccc2c(c1)O[C@@H](c1ccc3c(c1)OCO3)[C@H](OC(=O)Nc1cc(OC)c(OC)c(OC)c1)C2=O
Second: CNc1ccccc(-c2ccc3cc4c(cc3n2)OCO4)c1=O
The IC50 of the first is 4-fold higher: 66.6 µM for the first, 16.5 µM for the second.

Compared with CC(C)c1ccc(S(=O)(=O)/N=C2/C=CC(=O)c3ccccc32)cc1, CNc1c(C(=O)O)ccc2c1C(=O)c1ccccc1C2=O is 4.7-fold higher in IC50: 5.36 µM for the first, 25 µM for the second.

O=C(COc1ccc(S(=O)(=O)N2CCCC2)cc1)NCCC1=CCCCC1 and O=C(COc1ccc(Cl)cc1)N1CCN(S(=O)(=O)c2ccc(Cl)cc2)CC1 are within 1.5-fold of each other in IC50: 75.1 µM for the first, 50.7 µM for the second.

Compared with C=C(C)C(=O)Nc1cccc(C2=NOC3(C2)C[C@H](C(N)=O)N(C(=O)COc2ccc(Cl)cc2)C3)c1 (stereo partly drawn), C=C(C)C(=O)Nc1cccc(C2=NOC3(C2)C[C@@H](C(N)=O)N(C(=O)CCCCC)C3)c1 (stereo partly drawn) is 5.8-fold lower in IC50: 1.28 µM for the first, 0.22 µM for the second. The second is the more potent here.

Going from CN(C(=S)Nc1cccnc1)c1ccc(O)cc1 to CSc1ccc(/C=N/Nc2cccc(C(=O)O)c2)cc1, the IC50 rises from 1.85 µM to 11.2 µM (6.1-fold). The first is the more potent here.

Compared with O=S(=O)(O)c1cc(O)c(N=Nc2ccc(O)cc2O)c2ccccc12, O=S(=O)(O)c1cc(O)c2ccc(Nc3ccccc3)cc2c1 is 3.8-fold lower in IC50: 5.25 µM for the first, 1.38 µM for the second.

Going from C=CC1=C(C(=O)O)N2C(=O)C(NC(=O)Cc3ccccc3)C2SC1 (stereo not drawn) to O=C(O)CCCN1C(=O)/C(=C\C(Cl)=C\c2ccccc2)SC1=S, the IC50 falls from 11.5 µM to 2.45 µM (4.7-fold).

First: CC(C)N1C(=O)CC(Nc2ccc(N3CCOCC3)cc2)C1=O (stereo not drawn)
Second: Cc1ccc(Cn2c(=S)[nH]c3ccc(N4CCOCC4)cc3c2=O)o1
The IC50 of the first is 4.8-fold higher: 2.9 µM for the first, 0.61 µM for the second.

Compared with CC(C)(Oc1ccc(Cl)cc1)C(=O)NCc1ccco1, O=C(COC(=O)c1ccc(NS(=O)(=O)c2cccs2)cc1)NCc1ccco1 is 7.3-fold lower in IC50: 43.1 µM for the first, 5.88 µM for the second.

Compared with COc1cc(C2C(C(=O)c3ccco3)=C(O)C(=O)N2c2cc(C)on2)cc(Br)c1O (stereo not drawn), Cc1ccc(N(CN2C(=O)C3CC=CCC3C2=O)C(=O)c2ccco2)cc1Cl (stereo not drawn) is 2-fold higher in IC50: 26.5 µM for the first, 53.4 µM for the second. The first is the more potent here.

Going from COc1ccc(O)c(N)c1 to CCOC(=O)c1ccc(CC(=O)c2ccc(O)c(O)c2O)o1, the IC50 rises from 0.93 µM to 11.5 µM (12-fold).

CCC(=O)NC1=C(Cl)C(=O)C(NC(=O)CC)=C(Cl)C1=O and O=C(Nc1cc(Cl)cc(Cl)c1)c1coc(=O)c(Br)c1 are within 1.5-fold of each other in IC50: 22.9 µM for the first, 19.1 µM for the second.

Going from Cc1cc(O)c(C(C)C)cc1N=Cc1ccc([N+](=O)[O-])cc1 to O=C(NNC(=O)c1ccccc1O)c1ccc(-c2ccc([N+](=O)[O-])cc2)o1, the IC50 rises from 19 µM to 32.3 µM (1.7-fold). The first is the more potent here.

First: CCC(C)(C)n1nnnc1C(c1ccc2ncccc2c1)N1CCN(c2ccc(O)cc2)CC1 (stereo not drawn)
Second: Cc1c(NC(=O)CN2CCN(c3ccc(O)cc3)CC2)c(=O)n(-c2ccccc2)n1C
The IC50 of the first is 2.2-fold lower: 4.65 µM for the first, 10.2 µM for the second.

Going from CCOC(=O)C1=C(O)/C(=C\c2ccc(CNC(=O)C(=O)Nc3ccccc3)o2)N=C1C to CCOC(=O)c1c2c(n(Cc3ccccc3)c1C)C(=O)C(=O)c1ccccc1-2, the IC50 rises from 1.86 µM to 79.5 µM (43-fold).

Going from O=C(CCCN1C(=O)/C(=C\c2ccco2)SC1=S)Nc1cccc2ccccc12 to CCn1c2ccccc2c2cc(NC(=O)c3ccccc3[N+](=O)[O-])ccc21, the IC50 rises from 2.56 µM to 14.7 µM (5.7-fold). The first is the more potent here.

First: Nc1nc(Sc2ccc([N+](=O)[O-])c3nonc23)c2[nH]cnc2n1
Second: CN(Cc1cnc2nc(N)nc(N)c2n1)c1ccc(C(=O)NC(CCC(=O)O)C(=O)O)cc1 (stereo not drawn)
The IC50 of the first is 4.5-fold lower: 10.9 µM for the first, 49.2 µM for the second.

Compared with Cc1cc(C(=O)CN2C(=O)c3ccccc3S2(=O)=O)c(C)n1CC1CCCO1 (stereo not drawn), COC(=O)c1ccccc1NC(=O)c1noc2c1CCC2 is 2-fold lower in IC50: 51.2 µM for the first, 26 µM for the second.

Going from CCCC(=Nc1ccc(N)cc1)C1=C(O)C(C(=O)OC)C(C)(C)CC1=O (stereo not drawn) to C=CCn1c(O)c(C(CC)=Nc2ccc(N(C)C)cc2)c(=O)[nH]c1=O, the IC50 rises from 2.76 µM to 57.6 µM (21-fold). The first is the more potent here.

First: NS(=O)(=O)c1ccc2c(c1)C1C=CCC1C(C1CC=CCC1)N2 (stereo not drawn)
Second: Cc1ccc2c(c1C)NC(C(=O)O)C1CC=CC21 (stereo not drawn)
The IC50 of the first is 5.8-fold higher: 3.42 µM for the first, 0.59 µM for the second.

O=C(NC1CCCC1)c1ccc2nc(-c3ccco3)c(-c3ccco3)nc2c1 and O=C(NCCCO)Nc1ccc2nc(-c3ccco3)c(-c3ccco3)nc2c1 are within 1.5-fold of each other in IC50: 0.3 µM for the first, 0.26 µM for the second.

Going from O=C(CSc1ccccc1)N1CCN(c2ccccc2)CC1 to CC(=O)N(\C=C/C=C/C=C1\Sc2ccccc2C1=O)c1ccccc1, the IC50 falls from 67.4 µM to 5.47 µM (12-fold).

First: CCc1cc(C=NC2CCCCC2)c(O)s1
Second: COC/C=C/C1=CC2=CC(=O)C(C)(OC(=O)C3CCCC3)C(=O)C2=CO1 (stereo not drawn)
The IC50 of the first is 28-fold higher: 77.7 µM for the first, 2.75 µM for the second. The second is the more potent here.

O=C1c2ccccc2CC1Sc1nnc(-c2ccccn2)o1 (stereo not drawn) and O=C1NC(=O)C(=CN2CCc3ccccc32)C(=O)N1 are within 1.5-fold of each other in IC50: 98.4 µM for the first, 91.3 µM for the second.

Going from Cc1ccn2cc(-c3nonc3C)cc2c1 to Cc1oc(-c2ccc(Cl)cc2)cc1-c1nn2c(-c3ccoc3C)nnc2s1, the IC50 falls from 22.5 µM to 1.04 µM (22-fold).

Going from CCOC(=O)C1CCCN(c2ncnc3c2cnn3-c2ccc(Cl)cc2)C1 (stereo not drawn) to COc1ccc(CCNC(=O)CN2CCCc3ccccc32)cc1OC, the IC50 rises from 36 µM to 91 µM (2.5-fold).

First: S=c1[nH]nc(-c2cccnc2)n1/N=C/C=C/c1ccco1
Second: O=C(/C=C/c1ccco1)NC(=S)Nc1ccc(C(=O)O)cc1
The IC50 of the first is 4.1-fold lower: 3.97 µM for the first, 16.1 µM for the second.

Compared with O=C1CCCC/C1=C/Nc1ccc2c(c1)OCO2, Nc1c(C(=O)NC2CC2)sc2nc3c(c(-c4ccco4)c12)CC/C3=C/c1ccco1 is lower in IC50: 5.94 µM for the first, < 0.195 µM for the second.

First: O=C(O)CCCCC1CCSS1 (stereo not drawn)
Second: CCOC(=O)C(=O)Cc1cccnn1
The IC50 of the first is 12-fold higher: 7.67 µM for the first, 0.65 µM for the second.

Going from Cc1cccc(NC(=O)CNC(=O)c2cccc(-n3cccc3)c2)c1C to Cc1cc(F)ccc1S(=O)(=O)Nc1ccccc1C(=O)Nc1ccc2[nH]c(=O)[nH]c2c1, the IC50 rises from 12.2 µM to 78 µM (6.4-fold). The first is the more potent here.

Compared with CN1CCc2cccc3c2[C@H]1Cc1ccc(O)c(O)c1-3, O=C1C(O)CC2c3ccccc3CC3(CCCC3)N12 (stereo not drawn) is 57-fold higher in IC50: 0.89 µM for the first, 50.6 µM for the second.

Compared with Cc1cnnc2ccc3c(no[n+]3[O-])c12, CSc1nnc(-c2ccco2)c(-c2ccco2)n1 is 3.2-fold lower in IC50: 4.71 µM for the first, 1.49 µM for the second. The second is the more potent here.

First: CC(=O)OC1COC(n2ccc3ccccc32)C(OC(C)=O)C1OC(C)=O (stereo not drawn)
Second: CCN(CC)C(=O)c1ccc2c(c1)C1C(Cl)C(Sc3ccccc3[N+](=O)[O-])CC1C(C(=O)O)N2 (stereo not drawn)
The IC50 of the first is 1.7-fold higher: 22.6 µM for the first, 13 µM for the second.

Going from COc1cc(-c2ccc(Nc3ccccc3C(=O)O)c(OC)c2)ccc1Nc1ccccc1C(=O)O to COc1ccc(C2CC(=O)Nc3cc(C)c(C)cc32)c(OC)c1OC (stereo not drawn), the IC50 rises from 0.94 µM to 63.5 µM (68-fold). The first is the more potent here.

Compared with COC(=O)c1ccc(=O)c2nc3/c(=C/O)c(O)cc(=O)c3[nH]c12, Cc1ncc(CO)c(/C=N/NC(=O)c2cc(O)c(O)c(O)c2)c1O is 7-fold higher in IC50: 0.35 µM for the first, 2.45 µM for the second. The first is the more potent here.

Nc1nc(-c2ccco2)c(-c2ccco2)s1 gave an IC50 of 0.83 µM.
